Measured values published in patent US20080082038A1, “Medical Device including a Bioactive in a Non-ionic and an Ionic Form and Methods of Preparation Thereof” (Vance Products Incorporated, d/b/a/ Cook Urological …, priority 2006, published 2008).
Counter-ions that a name gives are not always drawn. Like-named read-outs stand apart in the source and are kept apart here.

What was measured:
[1] = Solubility of bupivacaine free-base and salt in water and ethanol; assay type: physicochemical
Protocol: In water, the free-base (unionized form) of bupivacaine is much less soluble in water than the salt form (bupivacaine-HCl). A water suspension of free-base in water has a pH of 7.85. […] By lowering the pH, the ratio of protonated bupivacaine (ionized) to unprotonated bupivacaine (unionized) increases.
(§1) Stents, prepared as described in Example 1, are imbibed in 5% bupivacaine-HCl in water/ethanol for 20 minutes at 45° C.

[2] = Elution of deposited drug from imbibed stents in buffered saline solution (HPLC); assay type: physicochemical; details: for rate of elution of drug from imbibed polyurethane stent: polyurethane stent imbibed with the named form
Protocol: as §1
The amount of drug deposited on the stent is determined by high performance liquid chromatography (HPLC). The rate of bupivacaine dissolution is determined by measuring the elution profiles using HPLC.
The solubility and thus the ratio of bupivacaine to bupivacaine-HCl was determined by the elution of the deposited drug in buffered saline solution (pH=7.4) mimicking a bodily fluid.

[3] = buffered saline solution pH=7.4

solubility ([1]; aqueous buffer, water, pH between 1.8 and 6, read-out: solubility (dissolved in water)) [mg/mL] | solubility ([1]; ethanol, organic solvent or mixture, read-out: solubility in ethanol) [mg/mL] | solubility ([1]; water, read-out: solubility in water) [mg/mL] | rate of elution of drug from imbibed polyurethane stent [2] | pH of water suspension of free-base ([1]; suspension in water) | solubility ([1]; water, pH 7.85, water, thermodynamic from solid, read-out: solubility) [mg/mL] | elution of the drug on day one and day two, ethanol solution relative to water solution [2, 3] | solubility of the deposited drug, ethanol deposition relative to water deposition [2, 3] | rate of elution of drug from imbibed polyurethane stent ([2]; listed as bupivacaine free-base) | Compound | solubility in aqueous solution relative to the bupivacaine-salt ([1]; aqueous solution)
40 to 50 | 125 | 40 | can elute more quickly | – | – | – | – | – | CCCCN1CCCCC1C(=O)Nc1c(C)cccc1C (stereo not shown) [bupivacaine-HCl] | –
– | – | – | – | 7.85 | ~0.25 | approximately six times | close to six times greater | greatly reduced | CCCCN1CCCCC1C(=O)Nc1c(C)cccc1C (stereo not shown) [bupivacaine] | at least two orders of magnitude less soluble
